Our source for the % of inhibition and % of control values is ChEMBL document CHEMBL5465560, “Selectivity Literature for EUbOPEN Chemogenomic Library” (2024).

Experiment [1] concerns the target High affinity nerve growth factor receptor (Homo sapiens, UniProt P04629). As to the kind of experiment: Selectivity interaction (SelectScreen Kinase Profiling (Thermo Fisher Scientific)) EUB0001558a NTRK1. The note with it: at 1 µM.
Experiment [2] addresses Dual specificity protein kinase CLK3 (Homo sapiens, UniProt P49761). Put plainly: Selectivity interaction (KinomeScan (DiscoverX)) EUB0001079a CLK3. The note with it: at 1 µM.
In experiment [3] the target is Melatonin receptor type 1A (Homo sapiens) (UniProt P48039). Put plainly: Selectivity interaction (Eurofins CEREP Diversity Profile (receptors and ion channels)) EUB0000279b MTNR1A. As to conditions: at 10 µM.
Experiment [4] concerns the target T1, Serine/threonine-protein kinase Chk1 (Homo sapiens) (UniProt O14757).
T1 sequence (whole entry): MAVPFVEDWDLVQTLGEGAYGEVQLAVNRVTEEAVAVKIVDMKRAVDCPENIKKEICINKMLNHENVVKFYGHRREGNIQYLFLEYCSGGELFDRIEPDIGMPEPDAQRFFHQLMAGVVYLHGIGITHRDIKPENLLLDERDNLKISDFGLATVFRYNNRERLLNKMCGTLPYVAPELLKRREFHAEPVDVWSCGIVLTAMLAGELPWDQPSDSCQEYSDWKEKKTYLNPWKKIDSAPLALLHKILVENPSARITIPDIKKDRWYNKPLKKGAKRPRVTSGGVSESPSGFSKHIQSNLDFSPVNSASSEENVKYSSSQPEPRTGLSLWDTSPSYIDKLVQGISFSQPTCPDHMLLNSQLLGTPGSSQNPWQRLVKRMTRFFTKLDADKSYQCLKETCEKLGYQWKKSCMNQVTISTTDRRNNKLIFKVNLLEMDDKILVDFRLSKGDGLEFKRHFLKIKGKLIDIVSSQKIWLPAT
As to the kind of experiment: Selectivity interaction (KinomeScan (DiscoverX)) EUB0000045b CHEK1.

Experiment [5] deals with T2, Cyclin-dependent kinase 11A (Homo sapiens) (UniProt Q9UQ88).
T2 sequence (whole entry): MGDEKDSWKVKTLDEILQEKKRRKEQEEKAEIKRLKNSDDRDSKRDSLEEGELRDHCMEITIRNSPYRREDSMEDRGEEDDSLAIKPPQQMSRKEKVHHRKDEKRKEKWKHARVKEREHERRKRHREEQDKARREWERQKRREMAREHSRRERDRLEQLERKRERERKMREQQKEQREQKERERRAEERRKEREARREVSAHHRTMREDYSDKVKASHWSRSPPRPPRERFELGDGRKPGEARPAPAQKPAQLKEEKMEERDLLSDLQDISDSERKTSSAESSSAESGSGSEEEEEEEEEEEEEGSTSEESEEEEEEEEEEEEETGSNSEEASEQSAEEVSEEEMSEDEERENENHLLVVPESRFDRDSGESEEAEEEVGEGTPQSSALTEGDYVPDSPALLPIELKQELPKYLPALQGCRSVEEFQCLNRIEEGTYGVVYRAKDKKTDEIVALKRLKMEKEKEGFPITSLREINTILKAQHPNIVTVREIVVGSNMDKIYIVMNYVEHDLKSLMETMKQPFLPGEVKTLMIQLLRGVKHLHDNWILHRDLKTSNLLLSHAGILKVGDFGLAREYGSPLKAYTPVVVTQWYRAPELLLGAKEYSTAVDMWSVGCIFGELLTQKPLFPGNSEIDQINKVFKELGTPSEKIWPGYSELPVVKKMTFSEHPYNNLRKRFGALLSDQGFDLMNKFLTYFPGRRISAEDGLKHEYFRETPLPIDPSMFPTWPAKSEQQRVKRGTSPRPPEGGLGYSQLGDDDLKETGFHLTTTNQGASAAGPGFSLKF
Put plainly: Selectivity interaction (ActivX KiNativ screen (kinase selectivity in THP-1 cell lysates)) EUB0000639a CDK11A. Type of experiment: subcellular. As to conditions: lysate, at 0.01 µM.

Experiment [6] deals with T3, Mitogen-activated protein kinase kinase kinase 2 (Homo sapiens) (UniProt Q9Y2U5).
T3 sequence (whole entry): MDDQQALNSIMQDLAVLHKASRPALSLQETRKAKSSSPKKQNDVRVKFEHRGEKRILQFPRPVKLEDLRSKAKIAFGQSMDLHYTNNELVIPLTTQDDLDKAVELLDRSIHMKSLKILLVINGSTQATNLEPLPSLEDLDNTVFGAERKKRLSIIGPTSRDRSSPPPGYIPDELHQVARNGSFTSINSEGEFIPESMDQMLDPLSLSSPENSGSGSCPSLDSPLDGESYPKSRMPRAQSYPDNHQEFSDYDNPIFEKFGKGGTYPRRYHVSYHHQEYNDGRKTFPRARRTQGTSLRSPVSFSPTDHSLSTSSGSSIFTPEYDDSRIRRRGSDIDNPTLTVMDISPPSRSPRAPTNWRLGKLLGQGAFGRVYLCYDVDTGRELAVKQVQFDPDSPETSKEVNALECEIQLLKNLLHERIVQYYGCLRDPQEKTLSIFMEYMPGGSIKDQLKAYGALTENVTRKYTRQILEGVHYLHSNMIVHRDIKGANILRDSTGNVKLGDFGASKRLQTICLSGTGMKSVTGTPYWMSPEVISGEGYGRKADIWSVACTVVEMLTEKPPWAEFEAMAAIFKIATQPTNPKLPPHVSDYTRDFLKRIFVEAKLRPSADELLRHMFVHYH
Put plainly: Selectivity interaction (ActivX KiNativ screen (ex vivo kinase selectivity in human PBMCs)) EUB0001619a MAP3K2. The experiment is classed as cell-based. The note with it: PBMC, at 1 µM.

Chain of Melatonin receptor type 1A (Homo sapiens) (P48039 whole entry): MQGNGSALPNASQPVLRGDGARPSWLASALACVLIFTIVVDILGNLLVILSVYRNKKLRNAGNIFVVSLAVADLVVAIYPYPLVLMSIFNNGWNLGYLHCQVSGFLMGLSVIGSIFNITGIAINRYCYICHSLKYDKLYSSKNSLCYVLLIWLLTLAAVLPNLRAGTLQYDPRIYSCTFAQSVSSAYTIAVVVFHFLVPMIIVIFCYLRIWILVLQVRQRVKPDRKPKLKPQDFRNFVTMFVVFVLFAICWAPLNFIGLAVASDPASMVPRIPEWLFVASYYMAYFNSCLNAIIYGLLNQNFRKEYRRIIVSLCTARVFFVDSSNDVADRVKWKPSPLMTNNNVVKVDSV
Chain of Dual specificity protein kinase CLK3 (P49761 whole entry, looked up): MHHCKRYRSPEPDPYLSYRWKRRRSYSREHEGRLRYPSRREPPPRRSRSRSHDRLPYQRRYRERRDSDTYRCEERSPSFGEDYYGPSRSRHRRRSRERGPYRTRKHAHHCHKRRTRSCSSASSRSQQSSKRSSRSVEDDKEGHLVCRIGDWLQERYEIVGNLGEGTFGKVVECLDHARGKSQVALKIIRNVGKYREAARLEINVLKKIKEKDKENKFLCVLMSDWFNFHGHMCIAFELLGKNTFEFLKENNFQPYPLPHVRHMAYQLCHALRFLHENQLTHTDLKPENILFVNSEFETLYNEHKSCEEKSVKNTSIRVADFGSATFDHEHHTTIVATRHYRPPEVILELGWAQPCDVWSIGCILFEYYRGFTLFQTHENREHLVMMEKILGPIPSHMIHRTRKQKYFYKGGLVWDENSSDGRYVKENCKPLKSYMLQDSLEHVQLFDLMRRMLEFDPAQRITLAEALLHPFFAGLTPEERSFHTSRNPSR
Chain of High affinity nerve growth factor receptor (P04629 33-796 limits assumed): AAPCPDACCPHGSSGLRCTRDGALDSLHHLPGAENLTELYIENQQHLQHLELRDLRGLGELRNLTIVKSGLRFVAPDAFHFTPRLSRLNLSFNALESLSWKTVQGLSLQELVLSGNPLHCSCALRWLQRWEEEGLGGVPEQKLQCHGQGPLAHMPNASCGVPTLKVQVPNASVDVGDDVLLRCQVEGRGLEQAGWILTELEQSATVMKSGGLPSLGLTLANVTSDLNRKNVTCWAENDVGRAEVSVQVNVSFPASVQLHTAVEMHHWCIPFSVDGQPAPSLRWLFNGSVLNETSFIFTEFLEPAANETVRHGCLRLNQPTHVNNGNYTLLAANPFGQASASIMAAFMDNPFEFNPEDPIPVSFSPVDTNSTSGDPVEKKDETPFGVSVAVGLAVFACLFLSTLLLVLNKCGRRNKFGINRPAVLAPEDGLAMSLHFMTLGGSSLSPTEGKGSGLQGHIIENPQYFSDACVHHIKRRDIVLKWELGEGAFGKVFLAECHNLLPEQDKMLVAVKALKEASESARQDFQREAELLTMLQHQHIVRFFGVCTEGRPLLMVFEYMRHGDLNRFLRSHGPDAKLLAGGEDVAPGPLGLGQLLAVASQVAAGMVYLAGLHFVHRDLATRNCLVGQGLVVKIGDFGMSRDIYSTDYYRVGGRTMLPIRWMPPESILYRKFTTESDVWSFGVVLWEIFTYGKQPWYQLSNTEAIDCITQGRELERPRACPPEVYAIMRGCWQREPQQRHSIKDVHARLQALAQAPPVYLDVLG

As for `CC(C)(O)[C@H](F)CN1Cc2cc(NC(=O)c3cnn4cccnc34)c(N3CCOCC3)cc2C1=O`, in experiment [1], the % of inhibition turned out to be 71%.

Turning to `Nc1cnc(N2CCc3cc(S(=O)(=O)Nc4c(F)cc(Cl)cc4F)cc(N4CCCC4=O)c32)nc1` [TP-020n], in experiment [2], the % of control came out at 74%.

For `CC(=O)c1cc(-c2ccccc2OCC2CC2)c2ncccn12`, the % of control in experiment [3] worked out at 46%.

On to `C=CC(=O)Nc1cc(-n2c(=O)ccc3cnc4ccc(-c5ccc(NS(C)(=O)=O)cc5)cc4c32)ccc1C`, for which the % of control in experiment [4] (at 1 µM) amounted to 100%; in experiment [4] (at 10 µM), 79%.

Take `CC[C@@H]1[C@H](F)C(=O)N[C@@H]1COc1nccc2cc(C(N)=O)c(OC)cc12` [ZIMLOVISERTIB]: the % of inhibition in experiment [5] was 11.4%.

The compound `N#Cc1cccc(-c2c[nH]c3ncnc(N4CCOCC4)c23)c1` had a % of inhibition in experiment [6] of 13%.
